Source: publication PMC6882465, “Towards discovery of new leishmanicidal scaffolds able to inhibit Leishmania GSK-3” (Journal of Enzyme Inhibition and Medicinal Chemistry, 2019)

molecular target: LdGSK-3 (Leishmania donovani, UniProt A6N857); assay: Inhibition of LdGSK-3 with Kinase Glo; assay type: biochemical; conditions: Table S2; 10 µM
Sequence (A6N857 entry or part of it): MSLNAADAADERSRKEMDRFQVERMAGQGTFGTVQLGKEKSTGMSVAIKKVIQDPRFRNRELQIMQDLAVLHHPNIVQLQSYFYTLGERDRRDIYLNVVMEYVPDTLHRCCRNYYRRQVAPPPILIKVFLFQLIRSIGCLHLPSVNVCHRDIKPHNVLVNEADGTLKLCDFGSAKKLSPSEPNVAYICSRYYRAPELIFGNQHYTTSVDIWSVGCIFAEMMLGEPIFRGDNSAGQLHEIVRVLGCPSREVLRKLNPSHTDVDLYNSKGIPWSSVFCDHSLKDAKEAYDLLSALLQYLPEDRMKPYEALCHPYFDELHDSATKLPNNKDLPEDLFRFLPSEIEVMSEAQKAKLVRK
Procedure: Assessment of inhibition of LdGSK-3 with Kinase Glo^TM
The reaction was allowed to proceed for 30 min at 30 °C, then it was incubated at room temperature for another 10 min after addition of Kinase Glo reagents (Promega, Ref. V6712). ATP consumption by LdGSK-3 was measured indirectly through end-point luminescence measurement of each well in a Varioskan Flash microplate reader (Thermo).

| SMILES | % inhibition @ 10µM (initial screening on LdGSK3) |
| --- | --- |
| CCOc1ccc(CN(C)Cc2nc(N)nc(Nc3ccc(C)cc3)n2)cc1 [Compound 78] | 4.90±1.45% |
| Cc1ccc(Nc2nc(N)nc(CNC(c3nc4ccccc4[nH]3)C(C)C)n2)cc1 (stereo not shown) [Compound 79] | 6.40±1.30% |
| Cn1c(CC(=O)NNC(=O)c2ccc3ccccc3n2)nc2ccccc21 [Compound 80] | 7.95±1.65% |
| COc1cccc(CN(C)Cc2nc(N)c3c(C)c(C)sc3n2)c1 [Compound 81] | 6.35±3.00% |
| N#Cc1ccccc1S(=O)(=O)N1CCN(C(=O)CNC(=O)c2ccc3c(c2)OCO3)CC1 [Compound 82] | 1.90±2.60% |
| CNc1nc(C)nc(N2CCc3cc(C(=O)NCc4ccc(-c5nccn5C)cc4Cl)ccc32)n1.O=C(O)C(F)(F)F [Compound 83] | -5.05±0.45% |
| COc1cnc2ccc(=O)n(CCN3CCC(NC/C=C/c4cc(F)ccc4F)CC3)c2c1 [Compound 84] | 3.55±2.20% |
| CC(c1ccccn1)N(C)Cc1nc2ccccc2n1C(C)C (stereo not shown) [Compound 85] | 3.45±4.90% |
| c1ccc2sc(Nc3nc4ncccc4[nH]3)nc2c1 [Compound 86] | 6.55±2.70% |
| c1ccc(-c2nc(NCc3ccco3)c3ccccc3n2)nc1 [Compound 87] | -0.05±0.95% |
| COc1ccc(-c2cnc(NC(=O)c3ccc(F)cc3)n2C)cc1 [Compound 88] | 2.00±1.95% |
| O=C(Nc1cccc(Cl)c1)Nc1ccc([N+](=O)[O-])cc1Cl [Compound 89] | 4.80±2.05% |
| COc1ccc(-c2cnc(NC(=O)c3cc(-c4ccccn4)n[nH]3)n2C)cc1 [Compound 90] | 6.40±2.45% |
| CN(Cc1nc2cccc(C(=O)N3CCN(Cc4ccccc4)CC3)c2[nH]1)C1CCCc2cccnc21.O=C(O)C(F)(F)F (stereo not shown) [Compound 91] | 12.65±6.10% |
| c1ccc(-c2nc(NC3CCCC3)c3ccccc3n2)nc1 [Compound 92] | -0.55±1.25% |
| CCc1cc(C(=O)Nc2nccn2-c2ccccc2)cs1 [Compound 93] | -2.35±1.95% |
| CC(C)c1nn(-c2nc(N)nc(-c3ccccn3)n2)c(N)c1C1CCCCC1 [Compound 94] | 10.45±0.55% |
| O=C(c1ccc(O)c(Cl)c1)N1CCN(c2cnccn2)CC1 [Compound 96] | 1.65±2.40% |
| Cc1ccc(NC(=O)c2ccc([N+](=O)[O-])s2)cc1S(=O)(=O)N1CCOCC1 [Compound 97] | 6.15±1.05% |
| O=C(CCCNC(=O)c1ccc(Cl)cc1)Nc1nc(-c2ccccn2)cs1 [Compound 98] | 8.50±1.10% |
| OCC1CCCCN1c1cc(-c2ccccn2)nc(Nc2ccccc2)n1 (stereo not shown) [Compound 99] | 0.60±0.60% |
| N#Cc1cccc(Nc2nccc(N3CCC(NS(=O)(=O)c4cccc(C#N)c4)CC3)n2)c1.O=C(O)C(F)(F)F [Compound 100] | 37.05±1.50% |
| Br.Nc1nccc(-c2csc(Nc3ccc(Cl)cc3)n2)n1 [Compound 101] | 16.40±2.40% |
| Oc1c(-c2n[nH]c(Cc3ccc(F)cc3)n2)ncc2cccnc12 [Compound 102] | 4.05±3.10% |
| CC(C)(C)Nc1nc(Nc2ccc3c(c2)CS(=O)(=O)C3)nc2[nH]ccc12 [Compound 103] | 25.85±1.25% |
| Cc1nn(-c2nc(N)nc(-c3ccccn3)n2)c(C)c1Cc1ccccc1 [Compound 104] | -0.75±1.55% |
| NC(=O)c1cc(NC(=O)c2ccccc2COc2ccccc2)ccc1Cl [Compound 105] | -0.45±1.10% |
| CC(C)Nc1nc(Cl)nc2ccccc12 [Compound 106] | -4.60±0.90% |
